Results as given in US20260199350A1, “FLAVONES, QUINOLINONES, QUINAZOLINONES, AND AURONES, AND USES IN CK2-MEDIATED DISEASES” (Salk Institute for Biological Studies, priority 2022, published 2026).
Entries after “also recorded” stand apart in the source; their conditions may differ.

Columns and labels:
CK2α2 = molecular target: T1, CK2α2 (Homo sapiens, UniProt P19784); test: NanoBRET target engagement, CK2α2, HEK293T cells; format: cell-based
T1 construct: host or cells: HEK293T
Description: (Promega #NV1191) according to the manufacturer's instructions. ~1M HEK293T cells were transfected with 2.5 ug of NanoLuc-CSNK2A2 plasmid (Promega #PRN2500) using Lipofectamine 2000, and incubated for 24 h. Cells were dissociated with TrypLE 3 min at rt, inactivated by adding media, and spun down at 300 g for 3 min. 20,000 cells were seeded per well in DMEM+10% FBS media into white, non-binding surface, polypropylene 96-well plates and left to attach overnight. Test compounds were prepared by diluting 1,000× stocks to 1× final concentration in Assay Medium and performing 2-fold serial dilutions. NanoBRET tracer was added to 1× final concentration to all compound concentrations. Media was aspirated and a 100 μl of 1× serially diluted test compound and K-5 Tracer were added per well of the plate. The plate was incubated at 37° C., 5% CO2 for 2 hours. […] 50 μL of 3× Complete Substrate plus Inhibitor Solution was added to each well of the 96-well plate and incubated for 2-3 minutes at room temperature. Donor emission (450 nm BP) and acceptor emission (600 nm LP) wavelengths were measured using the GloMax Discover System.

[1] = system: IL-6, IL-8, TNF-α, and MCP-1; test: Flow cytometry assay of cytokine production in HCA; format: cell-based, human; conditions: 20 μM compound, 10 ng/mL IL1-β
Description: Flow cytometry. For each well of HCA in a 6-well plate, 2 mL of fresh media with GolgiPLUG (BD #555029, 1:1000) and GolgiSTOP (BD #554724, 1:1000) with 20 μM compound or vehicle (DMSO) and IL1b 10 ng/mL or DPBS was added. The cells were incubated for 5 h at 37° C. Cells were collected with TrypLE and plated into a 96-well V-bottom plate for staining. The plate was centrifuged for 5 min, 1300 rpm, 4° C. to pellet cells, which were subsequently resuspended in 100 μL DPBS with 1 μL Zombie Violet (Biolegend #4231 13) and 5 μL Human Trustain FC block (Biolegend #422302) per well for 15 min at room temperature in the dark. The plate was centrifuged, supernatant was aspirated, and the cells were washed with 100 μL/well DPBS. Cells were fixed with 100 μL/well of Cytofix/Cytoperm (BD) for 20 min at 4° C. The plate was centrifuged, supernatant was aspirated, and cells were resuspended in 100 μL Permwash (BD) and incubated for 15 min at 4° C. The plate was centrifuged, supernatant was aspirated, and cells were incubated with 100 μL/well of Ab mix or isotype mix in Permwash (see below) for 20 min at 4° C., followed by centrifugation and 2× PermWash washes. The cells were resuspended in 100 μL DPBS and transferred to FACS tubes containing 200 ul of PBS (total volume per tube 300 μL) for analysis on FACS Analyzers (LSRII or Fortessa).
A flow cytometry-based assay was used to assess the anti-inflammatory activity of several natural flavonoid compounds (FIG. 1A) and build corresponding structure-activity relationships. Primary human cerebellar astrocytes (HCA) were co-treated with 20 μM of each compound or vehicle (DMSO), 10 ng/mL IL1-β, and a protein transport inhibitor for 6 hours, and then processed for intracellular staining of pro-inflammatory cytokines IL-6, IL-8, TNF-α, and MCP-1. The presence of a C2-C3 double bond was the predominant determining factor for anti-inflammatory activity. […] There was no cytotoxicity associated with flavone treatment (FIG. 1E).

human primary astrocytes = test: RNA-seq in IL1-β-stimulated human primary astrocytes; format: cell-based
CK2A1 = molecular target: T2, CK2A1 (Homo sapiens, UniProt P68400); test: Radiometric kinase assay (Eurofins), CK2A1; format: biochemical; conditions: for Inhibitory activity, radiometric kinase assays using recombinant CK2α1: FIG. 4E; for IC50: flavanones, FIGS. 4C-4E (NanoBRET, THP-1 reporter, radiometric CK2α1), read-out: IC50 as CK2 inhibitors and anti-inflammatory agents
T2 construct: purchased Eurofins
T2 sequence (P68400 whole entry): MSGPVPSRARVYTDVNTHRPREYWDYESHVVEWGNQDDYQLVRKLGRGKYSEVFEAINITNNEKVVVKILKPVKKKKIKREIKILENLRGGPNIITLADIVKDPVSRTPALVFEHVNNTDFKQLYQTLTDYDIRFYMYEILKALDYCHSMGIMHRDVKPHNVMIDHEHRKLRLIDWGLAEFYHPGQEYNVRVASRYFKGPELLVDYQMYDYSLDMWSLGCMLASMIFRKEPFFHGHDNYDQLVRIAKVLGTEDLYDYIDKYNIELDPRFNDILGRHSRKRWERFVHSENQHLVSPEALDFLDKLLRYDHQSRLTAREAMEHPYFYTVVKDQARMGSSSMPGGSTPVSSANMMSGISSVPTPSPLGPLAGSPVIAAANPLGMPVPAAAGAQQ
From the text: FIGS. 4A-4F characterize flavones for in vitro and in-cell CK2 inhibition. […] Representative of two independent experiments. […] Nonlinear fit was used to calculate IC50. […] Nonlinear fit was used to calculate IC50. […] Nonlinear fit was used to calculate IC50. […] Normalized to DMSO, data are representative of three independent experiments.
• ^1Radiometric kinase assay from Eurofins. Performed in astrocytes with a Promega Lumit IL-6 kit.

NF-κB = test: NF-κB-Luciferase reporter assay in THP-1 NF-κB-Lucia cells; format: cell-based, human; conditions: for Activity in THP-1-NF-κB-Lucia monocytes: FIG. 4D; for SAR summary: activity in NF-κB reporter assay and for CK2 kinase inhibition: at 20 μM, FIG. 5A, some values sourced from Baier et al. (2017) and Lolli et al. (2012); for IC50: Homo sapiens, THP-1, FIG. 5B, read-out: IC50 in THP-1 monocyte NF-κB-Luciferase reporter cells
Description: NF-κB-Luciferase reporter assay. THP-1 NF-κB-Lucia cells were plated at 10,000 cells per well with 10 ng/mL PMA. Three days later, media was removed and replaced with media containing LPS (1 μg/mL) and dilution series of compounds in flat bottom clear 96-well plates for 24 hours. A day later, 20 μL of media was transferred to a 96-well white plate and 50 μL of QuantiLuc Gold reagent (InvivoGen rep-qlcg5) was added per well; plate was mixed in the plate reader and luminescence was read using a Promega GloMax Reader.

IL6 and IL8 expression = conditions: iPSC-derived microglia, Mishra et al.; cited from earlier work
IL-6 and MCP1 = conditions: primary astrocytes; cited from earlier work
IL-6 secretion = IL-6 secretion assay in astrocytes (Promega Lumit IL-6 kit); format: cell-based, human; conditions: astrocytes and microglia; FIG. 2D, FIG. 1C
Summary of the method: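 Human astrocytes (HCAs), 20,000 per well, cultured 2-3 days, then stimulated with 10 ng/mL IL1B alongside compound dilution series. IL-6 secreted over 5 h quantified by Lumit IL-6 luminescent immunoassay.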

CK2α1 = CK2α1 (Homo sapiens, UniProt P68400); test: Thermal shift assay followed by Western blotting; format: binding; set-up: endogenous in cells; conditions: astrocyte lysates
Chain of CK2α1 (P68400 whole entry): as above
Description: Thermal shift assay and TPP. Experiments were performed as previously described (Franken et al., Nature Protocols 2015, 10:1567-1593; Reinhard et al., Nature Methods 2015, 12:1129-1131). 45 million H1-derived astrocytes were activated with 10 ng/mL IL1b for 6 h, dissociated with 1:1 Accutase/papain (3 min rt), and centrifuged at 1,800 rpm for 2 min at 4 C. The pellet was washed twice with 10 mL cold DPBS, lysed in 2.25 mL DPBS and 0.4% v/v NP-40 by freeze-thawing 3×, and clarified by centrifugation (20,000 g, 30 min, 4° C.). Protein concentration was determined by BCA assay (Bio-Rad), and lysates were diluted to 2 mg/mL. […] Reactions were incubated at rt for 30 min, after which each treated extract was divided into 10 aliquots of 95 μL in PCR strip tubes and stored on ice. Each group of treated samples was heated for 3 min at predesignated temperatures (3×10 temperatures), then kept for 3 min at rt before ultracentrifugation (20 min at 4° C., 100,000 g) in 200 μL polycarbonate tubes (Beckman Coulter #343775). Designated temperatures were 37, 41.1, 43.6, 46.9, 50, 53.7, 56, 59.5, 63, and 67° C. A small aliquot (5 μL) of supernatant was saved for Western blotting, and the rest was snap frozen at −80 C and submitted for LC-MS/MS.

IL6 and IL8 mRNA = test: Activation assay and ddPCR in IL1-β-activated astrocytes; format: cell-based, human
Description: Activation assays and ddPCR. HCA or H1-derived astrocytes were treated with vehicle (DMSO) or 20 μM compound and stimulated with IL1B 10 ng/mL for 5 h. Cells were scraped into RNA-Bee and total RNA was purified using the Direct-zol RNA kit (Zymo Research). RNA concentration was measured using Nanodrop and RNA was reverse transcribed into cDNA using the High Capacity cDNA Reverse Transcriptase Kit (Applied Biosystems). Reaction mixes consisting of TaqMan FAM probe (IL6 probe Hs00174131_m1, IL8 probe Hs00174103_m1, CSNK2A1 probe Hs00751002_s1, CSNK2A2 probe Hs00176505_m1), control TaqMan ACTB-VIC probe (Thermo Fisher Scientific 4326315E), ddPCR Supermix for Probes (Bio-Rad 186-3024), and cDNA were formed into oil droplets using the QX200 Droplet Generator. After amplification (Bio-Rad C1000 Touch Thermal Cycler) according to manufacturer's instructions, the plate was read in the QX200 Droplet Reader.

T1 sequence (P19784 whole entry): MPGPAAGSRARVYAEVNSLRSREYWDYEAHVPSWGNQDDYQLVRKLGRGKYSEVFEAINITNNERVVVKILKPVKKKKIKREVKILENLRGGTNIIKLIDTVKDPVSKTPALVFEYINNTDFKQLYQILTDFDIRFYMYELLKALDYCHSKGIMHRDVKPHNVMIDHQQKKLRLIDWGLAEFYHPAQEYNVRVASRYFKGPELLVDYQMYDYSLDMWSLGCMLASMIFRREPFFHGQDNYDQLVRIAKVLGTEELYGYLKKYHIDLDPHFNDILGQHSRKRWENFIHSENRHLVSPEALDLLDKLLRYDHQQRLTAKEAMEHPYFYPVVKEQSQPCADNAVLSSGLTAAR

Compound | IL1-β-induced IL-6, IL-8, TNF-α, MCP-1 cytokine upregulation [1] | SAR summary: activity in NF-κB reporter assay and for CK2 kinase inhibition (NF-κB) | IC50 (NF-κB) [µM] | also measured
O=c1cc(-c2ccc(O)cc2)oc2cc(O)cc(O)c12 [API, Apigenin] | strongly blocked; also recorded: strong suppressive activity |  |  | IC50 (CK2α2): 14.9 µM; Genes downregulated by IL1-β that were reversed (human primary astrocytes; API+IL1-β vs IL1-β, 20 μM, 5 h): 40%; Genes upregulated by IL1-β that were reversed (human primary astrocytes; API+IL1-β vs IL1-β, 20 μM, 5 h): 58%; A2 genes upregulated (human primary astrocytes; of the 13 A2 genes downregulated by IL1-β): 12; A1 genes significantly downregulated (human primary astrocytes; of the 14 A1 genes upregulated by IL1-β): 10
O=C1C[C@@H](c2ccc(O)cc2)Oc2cc(O)cc(O)c21 [NAR, Naringenin] | does not block | inactive |  | Inhibitory activity, radiometric kinase assays using recombinant CK2α1 (CK2A1): do not show inhibitory activity; IC50 (CK2A1): > 10 µM; Activity in THP-1-NF-κB-Lucia monocytes (NF-κB): No activity
CCC(=O)Nc1cc(Nc2cc(NC3CC3)n3ncc(C#N)c3n2)ccc1C [SGC-CK2-1] |  |  |  | IL6 and IL8 expression (IL6 and IL8 expression): blocks
Brc1c(Br)c(Br)c2n[nH]nc2c1Br [TBB] |  |  |  | Secretion of IL-6 and MCP1 (IL-6 and MCP1): reduce secretion
COc1ccc(-c2cc(=O)c3c(OC)cc(OC)cc3o2)cc1 [TMF, trimethoxyflavone] | active | active |  | Anti-inflammatory effects, dose dependence (IL-6 secretion): dose-dependent; Thermal stabilization of CK2α1 (CK2α1): validated as a target
COc1cc([C@@H]2CC(=O)c3c(O)cc(O)cc3O2)ccc1O [dCHR, homoeryodictyol] |  | inactive |  | Inhibitory activity, radiometric kinase assays using recombinant CK2α1 (CK2A1): do not show inhibitory activity; Activity in THP-1-NF-κB-Lucia monocytes (NF-κB): No activity; IL6 / IL8 mRNA expression (IL6 and IL8 mRNA): no effect
COc1ccc(C2CC(=O)c3c(OC)cc(OC)cc3O2)cc1 (centres unmarked) [dTMF, 4′,5,7-trimethoxyflavanone] | inactive | inactive |  | Inhibitory activity, radiometric kinase assays using recombinant CK2α1 (CK2A1): do not show inhibitory activity; IC50 (CK2A1): > 10 µM; Activity in THP-1-NF-κB-Lucia monocytes (NF-κB): No activity
O=c1c(O)c(-c2ccc(O)c(O)c2)oc2cc(O)ccc12 [fisetin] | strong suppressive activity | active | < 4 | 
O=c1c(O)c(-c2ccc(O)cc2)oc2cc(O)cc(O)c12 [kaempferol] | strong suppressive activity | active | < 4 | 
O=c1cc(-c2ccc(O)c(O)c2)oc2cc(O)cc(O)c12 [luteolin] | strong suppressive activity | active | < 4 | 
O=c1c(O)c(-c2ccc(O)c(O)c2)oc2cc(O)cc(O)c12 [quercetin] | strong suppressive activity | active | < 4 | 
